System: K86415-001-R-J1-PDC complex spheroids, viability
Experiment: Anticancer human tumor K86415-001-R-J1-PDC patient-derived lung adenocarcinoma cell line growth inhibition [RAS]
Settings: for viability, T/C: stronger effect = lower value
Method in brief: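 Multi-cell-type spheroids: tumor cells plus HUVEC endothelial cells and mesenchymal stem cells. RAS-pathway inhibitors were combined with targeted agents, each dosed in half-log steps down from clinical Cmax, or from 10 microM when Cmax was unknown.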
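Further: spheroids exposed to agents for seven days before readout.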

CC(C)n1nc(-c2ccc3oc(N)nc3c2)c2c(N)ncnc21 + C=CC(=O)N1CCN(c2nc(OCC3CCCN3C)nc3c(F)c(-c4nc(N)cc(C)c4C(F)(F)F)c(Cl)cc23)C(C)C1
IC50 (curve of first compound, second compound 0.00316 µM): < 0.316 nM | IC50 (curve of first compound, second compound 0.01 µM): < 0.316 nM | IC50 (curve of first compound, second compound 0.0316 µM): < 0.316 nM | IC50 (curve of first compound, second compound 0.1 µM): < 0.316 nM | IC50 (curve of first compound, second compound 0.316 µM): < 0.316 nM | IC50 (curve of first compound, second compound 1 µM): < 0.316 nM | viability, T/C (second compound 0.00316 µM, first compound 0.000316 µM): 18.4% | viability, T/C (second compound 0.00316 µM, first compound 0.001 µM): 17.5% | viability, T/C (second compound 0.00316 µM, first compound 0.00316 µM): 16.8% | viability, T/C (second compound 0.00316 µM, first compound 0.01 µM): 19.4% | viability, T/C (second compound 0.00316 µM, first compound 0.0316 µM): 31.8% | viability, T/C (second compound 0.00316 µM, first compound 0.1 µM): 12.5% | viability, T/C (second compound 0.01 µM, first compound 0.000316 µM): 11.8% | viability, T/C (second compound 0.01 µM, first compound 0.001 µM): 11.1% | viability, T/C (second compound 0.01 µM, first compound 0.00316 µM): 11.4% | viability, T/C (second compound 0.01 µM, first compound 0.01 µM): 9% | viability, T/C (second compound 0.01 µM, first compound 0.0316 µM): 18.9% | viability, T/C (second compound 0.01 µM, first compound 0.1 µM): 6% | viability, T/C (second compound 0.0316 µM, first compound 0.000316 µM): 10.9% | viability, T/C (second compound 0.0316 µM, first compound 0.001 µM): 9.65% | viability, T/C (second compound 0.0316 µM, first compound 0.00316 µM): 8.36% | viability, T/C (second compound 0.0316 µM, first compound 0.01 µM): 8% | viability, T/C (second compound 0.0316 µM, first compound 0.0316 µM): 8.61% | viability, T/C (second compound 0.0316 µM, first compound 0.1 µM): 4.33% | viability, T/C (second compound 0.1 µM, first compound 0.000316 µM): 10.5% | viability, T/C (second compound 0.1 µM, first compound 0.001 µM): 7.96% | viability, T/C (second compound 0.1 µM, first compound 0.00316 µM): 7.44% | viability, T/C (second compound 0.1 µM, first compound 0.01 µM): 7.78% | viability, T/C (second compound 0.1 µM, first compound 0.0316 µM): 5.11% | viability, T/C (second compound 0.1 µM, first compound 0.1 µM): 3.67% | viability, T/C (second compound 0.316 µM, first compound 0.000316 µM): 10.1% | viability, T/C (second compound 0.316 µM, first compound 0.001 µM): 8.76% | viability, T/C (second compound 0.316 µM, first compound 0.00316 µM): 9.08% | viability, T/C (second compound 0.316 µM, first compound 0.01 µM): 8.68% | viability, T/C (second compound 0.316 µM, first compound 0.0316 µM): 6.52% | viability, T/C (second compound 0.316 µM, first compound 0.1 µM): 3.86% | viability, T/C (second compound 1 µM, first compound 0.000316 µM): 8.74% | viability, T/C (second compound 1 µM, first compound 0.001 µM): 8.53% | viability, T/C (second compound 1 µM, first compound 0.00316 µM): 8.04% | viability, T/C (second compound 1 µM, first compound 0.01 µM): 8.63% | viability, T/C (second compound 1 µM, first compound 0.0316 µM): 6.85% | viability, T/C (second compound 1 µM, first compound 0.1 µM): 2.72%

CC(C)NCC(C(=O)N1CCN(c2ncnc3c2C(C)CC3O)CC1)c1ccc(Cl)cc1 (stereo unspecified) + CCn1c(-c2cccnc2C(C)OC)c2c3cc(ccc31)N1CCOC(CC(NC(=O)C(C(C)C)N(C)C(=O)C3(F)CCN(C(=O)C#CC(C)(C)N(C)C)CC3)C(=O)N3CCCC(N3)C(=O)OCC(C)(C)C2)C1
IC50 (curve of first compound, second compound 0.000949 µM): < 31.6 nM | IC50 (curve of first compound, second compound 0.003 µM): < 31.6 nM | IC50 (curve of first compound, second compound 0.00949 µM): < 31.6 nM | IC50 (curve of first compound, second compound 0.03 µM): < 31.6 nM | IC50 (curve of first compound, second compound 0.0949 µM): < 31.6 nM | IC50 (curve of first compound, second compound 0.3 µM): < 31.6 nM | viability, T/C (second compound 0.000949 µM, first compound 0.0316 µM): 35.7% | viability, T/C (second compound 0.000949 µM, first compound 0.1 µM): 32.2% | viability, T/C (second compound 0.000949 µM, first compound 0.316 µM): 17.5% | viability, T/C (second compound 0.000949 µM, first compound 1 µM): 23.3% | viability, T/C (second compound 0.000949 µM, first compound 3.16 µM): 27.7% | viability, T/C (second compound 0.000949 µM, first compound 10 µM): 2.82% | viability, T/C (second compound 0.003 µM, first compound 0.0316 µM): 13.4% | viability, T/C (second compound 0.003 µM, first compound 0.1 µM): 10.9% | viability, T/C (second compound 0.003 µM, first compound 0.316 µM): 8.95% | viability, T/C (second compound 0.003 µM, first compound 1 µM): 8.63% | viability, T/C (second compound 0.003 µM, first compound 3.16 µM): 7.76% | viability, T/C (second compound 0.003 µM, first compound 10 µM): 2.54% | viability, T/C (second compound 0.00949 µM, first compound 0.0316 µM): 12.8% | viability, T/C (second compound 0.00949 µM, first compound 0.1 µM): 9.52% | viability, T/C (second compound 0.00949 µM, first compound 0.316 µM): 9.15% | viability, T/C (second compound 0.00949 µM, first compound 1 µM): 9.63% | viability, T/C (second compound 0.00949 µM, first compound 3.16 µM): 4.93% | viability, T/C (second compound 0.00949 µM, first compound 10 µM): 3.21% | viability, T/C (second compound 0.03 µM, first compound 0.0316 µM): 12.9% | viability, T/C (second compound 0.03 µM, first compound 0.1 µM): 10.5% | viability, T/C (second compound 0.03 µM, first compound 0.316 µM): 10.2% | viability, T/C (second compound 0.03 µM, first compound 1 µM): 8.95% | viability, T/C (second compound 0.03 µM, first compound 3.16 µM): 4.3% | viability, T/C (second compound 0.03 µM, first compound 10 µM): 3.21% | viability, T/C (second compound 0.0949 µM, first compound 0.0316 µM): 9.52% | viability, T/C (second compound 0.0949 µM, first compound 0.1 µM): 9.03% | viability, T/C (second compound 0.0949 µM, first compound 0.316 µM): 9.7% | viability, T/C (second compound 0.0949 µM, first compound 1 µM): 10% | viability, T/C (second compound 0.0949 µM, first compound 3.16 µM): 4.97% | viability, T/C (second compound 0.0949 µM, first compound 10 µM): 2.94% | viability, T/C (second compound 0.3 µM, first compound 0.0316 µM): 12.9% | viability, T/C (second compound 0.3 µM, first compound 0.1 µM): 12% | viability, T/C (second compound 0.3 µM, first compound 0.316 µM): 10.3% | viability, T/C (second compound 0.3 µM, first compound 1 µM): 6.44% | viability, T/C (second compound 0.3 µM, first compound 3.16 µM): 4.71% | viability, T/C (second compound 0.3 µM, first compound 10 µM): 2.26%

Cc1nc(N2CCC3(CC2)COC(C)C3N)c(CO)nc1Sc1ccnc(N)c1Cl (stereo unspecified)
viability, T/C (compound 0.0316 µM): 76.3% [middle of 4 runs] | viability, T/C (compound 0.1 µM): 53.6% [middle of 4 runs] | viability, T/C (compound 0.316 µM): 36.6% [middle of 4 runs] | viability, T/C (compound 1 µM): 27.2% [middle of 4 runs] | viability, T/C (compound 3.16 µM): 24.6% [middle of 4 runs] | viability, T/C (compound 10 µM): 20.1% [middle of 4 runs] | IC50 (curve of compound): 122 nM [middle of 4 runs]

Source: PubChem BioAssay AID2060893 (Molecular Pharmacology Branch, DTP, NCI, 2025)
